From the Deep4Chem optical property database

Experiment: solvent given as SMILES

CCn1c2ccccc2c2cc(-c3cc(-c4ccc5c(c4)c4ccccc4n5CC)ncn3)ccc21
absorption maximum (in C1CCOC1): 360 nm
absorption maximum (in CCOC(C)=O): 359 nm
absorption maximum (in CN(C)C=O): 363 nm
absorption maximum (in Cc1ccccc1): 360 nm
absorption maximum (in ClCCl): 360 nm

CCCCCCc1ccc2c3c(ccc2c1)O[B-](F)(F)[N+](c1cc([N+]2=Cc4c(ccc5cc(CCCCCC)ccc45)O[B-]2(F)F)cc([N+]2=Cc4c(ccc5cc(CCCCCC)ccc45)O[B-]2(F)F)c1)=C3
absorption maximum (in C1CCOC1): 418 nm
absorption maximum (in CC#N): 419 nm
absorption maximum (in Cc1ccccc1): 433 nm
absorption maximum (in ClCCl): 428 nm

F[B-]1(F)OC(c2cc3c4c(c2)CCCN4CCC3)=Cc2cccc[n+]21
absorption maximum (in ClC(Cl)Cl): 450 nm

CC(C)(C)c1ccc(C#Cc2c(C#Cc3ccc(C(C)(C)C)cc3)c3cccc4c(C#Cc5ccc(C(C)(C)C)cc5)c(C#Cc5ccc(C(C)(C)C)cc5)c5cccc2c5c34)cc1
absorption maximum (in ClCCl): 410 nm

CC(=O)c1c2c(cc3c(N(C)C)cccc13)CCC2
absorption maximum (in C1CCCCC1): 314 nm
absorption maximum (in C1CCOC1): 330 nm
absorption maximum (in C1COCCO1): 319 nm
absorption maximum (in CC#N): 316 nm
absorption maximum (in CCO): 334 nm
absorption maximum (in CS(C)=O): 334 nm
absorption maximum (in Cc1ccccc1): 322 nm
absorption maximum (in ClC(Cl)Cl): 334 nm
absorption maximum (in ClCCl): 334 nm

CC(C)(C)c1ccc2ccc3c(C(C)(C)C)ccc4ccc1c2c43
absorption maximum (in CCCCCC): 346 nm
absorption maximum (in CO): 345 nm
absorption maximum (in ClCCl): 348 nm

CN(C)c1ccc(-c2c(/C=C3/C=Cc4ccccc4N3C)c(=O)c2=O)cc1
absorption maximum (in C1CCCCC1): 358 nm
absorption maximum (in Cc1ccccc1): 362 nm
absorption maximum (in ClCCl): 509 nm

CCCCCCN1C(=O)c2cccc3c(-c4ccc(-c5ccc6c7c(cccc57)C(=O)N(CCCCCC)C6=O)s4)ccc(c23)C1=O
absorption maximum (in ClC(Cl)Cl): 395 nm

CCCCCCCCCCOC(=O)c1ccc2c3ccc(C(=O)OCCCCCCCCCC)c4c(C(=O)OCCCCCCCCCC)cc5[nH]c6cc(C(=O)OCCCCCCCCCC)c1c2c6c5c43
absorption maximum (in C1CCOC1): 410 nm

Cc1ccc(C2=C3C=CC(/C=C/c4ccccc4)=[N+]3[B-](F)(F)n3c(Cl)ccc32)cc1
absorption maximum (in C1CCCCC1): 569 nm
absorption maximum (in C1CCOC1): 568 nm
absorption maximum (in C1COCCO1): 569 nm
absorption maximum (in CCOC(C)=O): 565 nm
absorption maximum (in CO): 564 nm
absorption maximum (in Cc1ccccc1): 572 nm
absorption maximum (in ClC(Cl)Cl): 571 nm

C[Si](C)(C)C#Cc1c2c(=O)c3ccccc3c2c(C#C[Si](C)(C)C)c2c(=O)c3ccccc3c12
absorption maximum (in ClC(Cl)Cl): 524 nm

N#Cc1cc(-n2c3ccccc3c3ccccc32)c(-n2c3ccccc3c3cc(Br)ccc32)cc1C#N
absorption maximum (in C1CCOC1): 366 nm

CC1(C)CC(=O)c2cc(F)cc(F)c2N1
absorption maximum (in CC#N): 377 nm
absorption maximum (in CCO): 386 nm

CCOC(=O)CN1C(=O)C2=C(c3ccc(N4CCCCC4)cc3)N(CC(=O)OCC)C(=O)C2=C1c1ccc(N2CCCCC2)cc1
absorption maximum (in CC#N): 523 nm
absorption maximum (in CS(C)=O): 540 nm
absorption maximum (in Cc1ccccc1): 520 nm

COc1cc(OC)cc(C2=C3C(C)=C(I)C(/C=C/c4c[nH]c5ccccc45)=[N+]3[B-](F)(F)n3c(/C=C/c4c[nH]c5ccccc45)c(I)c(C)c32)c1
absorption maximum (in C1CCOC1): 715 nm
absorption maximum (in CS(C)=O): 727 nm
absorption maximum (in ClCCl): 702 nm

CCCCCCCCOC(=O)c1cc2ccc3ccccc3c2c(C#N)c1N
absorption maximum (in Cc1ccccc1): 435 nm

c1ccc(-c2nnc(-c3cc(-c4nnc(-c5ccccc5)o4)c(-n4c5ccccc5c5ccccc54)cc3-n3c4ccccc4c4ccccc43)o2)cc1
absorption maximum (in Cc1ccccc1): 370 nm

Cc1cc(O)c(C(=O)/C=C/c2ccccc2[N+](=O)[O-])c(=O)o1
absorption maximum (in CC#N): 352 nm
absorption maximum (in ClCCl): 365 nm

CN(C)c1ccc(C#Cc2ccc(C=O)cc2)cc1
absorption maximum (in C1CCCCC1): 381.5 nm
absorption maximum (in C1CCOC1): 379.51 nm
absorption maximum (in C1COCCO1): 375.01 nm
absorption maximum (in CC1CCCO1): 382 nm
absorption maximum (in CC#N): 375.01 nm
absorption maximum (in CC(C)=O): 388 nm
absorption maximum (in CC(C)CC(C)(C)C): 383.49 nm
absorption maximum (in CC(C)O): 380.5 nm
absorption maximum (in CCCCCCCCCCCCCCCC): 383 nm
absorption maximum (in CCCCCCCCCCCCCCCCCl): 390 nm
absorption maximum (in CCOC(C)=O): 375.01 nm
absorption maximum (in CCOCC): 372.49 nm
absorption maximum (in CN(C)C=O): 379.51 nm
absorption maximum (in CO): 380.5 nm
absorption maximum (in CS(C)=O): 387 nm
absorption maximum (in Cc1ccccc1): 381.5 nm

COc1cc(N(c2ccccc2)c2ccc(C=C(C#N)C#N)c(OC)c2)ccc1C=C(C#N)C#N
absorption maximum (in C1COCCO1): 464 nm
absorption maximum (in CC#N): 477 nm
absorption maximum (in CC(C)=O): 470 nm
absorption maximum (in CCOC(C)=O): 468 nm
absorption maximum (in CN(C)C=O): 469 nm
absorption maximum (in CO): 471 nm
absorption maximum (in Cc1ccccc1): 471 nm
absorption maximum (in ClC(Cl)Cl): 480 nm
absorption maximum (in ClCCl): 479 nm

COc1cc2c(cc1OC)C1=C[C@H](c3ccccc3)C3(C(C#N)=C(C#N)N1CC2)c1ccccc1-c1ccccc13
absorption maximum (in ClCCl): 310 nm

CCOC(=O)c1c(-c2cc3ccc(OC)cc3oc2=O)nn(-c2ccccc2)c1C(=O)OCC
absorption maximum (in ClCCl): 337 nm

CCC1=C(C)C2=Cc3cc(I)cn3[B-](F)(F)[N+]2=C1C
absorption maximum (in C1CCCCC1): 528 nm
absorption maximum (in CC(C)=O): 509.5 nm
absorption maximum (in CCO): 514 nm
absorption maximum (in CCOC(C)=O): 513 nm
absorption maximum (in CO): 511.5 nm
absorption maximum (in OCC(F)(F)F): 504 nm

COc1cccc(-n2c(-c3ccc(O)cc3)nc(C)c2C)c1
absorption maximum (in CC#N): 288 nm
absorption maximum (in CCO): 292 nm
absorption maximum (in CO): 287 nm

CCCCCCCCCc1c2ccccc2cc2c1oc1c3oc4c5oc6cc7ccccc7cc6c5c5ccccc5c4c3c3ccccc3c21
absorption maximum (in C1CCOC1): 420 nm

Clc1nc(Nc2ccccc2)nc(Nc2ccc3cc4ccccc4cc3c2)n1
absorption maximum (in C1COCCO1): 398 nm
absorption maximum (in CC#N): 397 nm
absorption maximum (in CCCCOCCCC): 398 nm
absorption maximum (in CCOC(C)=O): 396 nm

CC1(C)C(/C=C/c2cc3ccc(O)cc3oc2=O)=[N+](CCCS(=O)(=O)[O-])c2ccccc21
absorption maximum (in CCO): 623 nm
absorption maximum (in CS(C)=O): 630 nm
absorption maximum (in O): 555 nm

CC(C)(C)c1ccc2c(c1)c1cc(C(C)(C)C)ccc1n2-c1ccc(N(c2ccc(-c3ccc(-c4ccc(-c5ccc(-c6ccc(N(c7ccc(-n8c9ccc(C(C)(C)C)cc9c9cc(C(C)(C)C)ccc98)cc7)c7ccc(-n8c9ccc(C(C)(C)C)cc9c9cc(C(C)(C)C)ccc98)cc7)cc6)s5)c5nsnc45)s3)cc2)c2ccc(-n3c4ccc(C(C)(C)C)cc4c4cc(C(C)(C)C)ccc43)cc2)cc1
absorption maximum (in ClCCl): 528 nm

CCOC(=O)/C=C/c1ccc(N(C)C)cc1
absorption maximum (in C1CCCCC1): 353 nm
absorption maximum (in C1CCOC1): 362 nm
absorption maximum (in C1COCCO1): 359 nm
absorption maximum (in CC#N): 363 nm
absorption maximum (in CCCCCCCCO): 363 nm
absorption maximum (in CCCCCCO): 365 nm
absorption maximum (in CCCCO): 363 nm
absorption maximum (in CCCO): 364 nm
absorption maximum (in CCO): 363 nm
absorption maximum (in CCOC(C)=O): 360 nm
absorption maximum (in CO): 362 nm
absorption maximum (in Cc1ccccc1): 362 nm
absorption maximum (in O): 373 nm
absorption maximum (in c1ccccc1): 363 nm

CC(C)c1cc(C(C)C)c(B2c3cc(-n4c5ccc(C(C)(C)C)cc5c5cc(C(C)(C)C)ccc54)ccc3N(c3ccccc3)c3ccc(-n4c5ccc(C(C)(C)C)cc5c5cc(C(C)(C)C)ccc54)cc32)c(C(C)C)c1
absorption maximum (in C1CCCCC1): 410.54 nm

O=Cc1nc2ccc(C#Cc3ccc(N(c4ccc(C#Cc5ccc6nc(C=O)sc6c5)cc4)c4ccc(C#Cc5ccc6nc(C=O)sc6c5)cc4)cc3)cc2s1
absorption maximum (in Cc1ccccc1): 414 nm

N#CC1=CC=CC(C#N)=P1(c1ccccc1)c1ccccc1
absorption maximum (in ClC(Cl)Cl): 458 nm

Cc1ccc(C2=C3C=C4C(=[N+]3[B-](F)(F)n3c2cc2c3-c3ccccc3C23c2ccccc2-c2ccccc23)c2ccccc2C42c3ccccc3-c3ccccc32)cc1
absorption maximum (in C1CCOC1): 634 nm

CC1=c2c3c4cccc5cccc(c=3c(C)[n+]2[B-](F)(F)n2c(C)c3cc6c(-c7ccccc7)c7c(c(-c8ccccc8)c6cc3c21)-c1cccc2cccc-7c12)c54
absorption maximum (in ClCCl): 658 nm

CCOc1ccc2c(-c3nc(-c4ccccc4)no3)cc(=O)oc2c1
absorption maximum (in CCO): 388 nm
absorption maximum (in ClC(Cl)Cl): 392 nm

COc1ccc(-c2csc(/C(C#N)=C/c3c(Cl)cccc3Cl)n2)cc1
absorption maximum (in CC#N): 360 nm

CCOC(=O)c1c(-c2cc3ccc(OCC=C(C)C)cc3oc2=O)nn(-c2ccccc2)c1C(=O)OCC
absorption maximum (in ClCCl): 341 nm

CCOC(=O)c1c(-c2cc3ccccc3oc2=O)nn(-c2cccc(Cl)c2)c1C(=O)OCC
absorption maximum (in ClCCl): 325 nm

CCCCCCCCN1C(=O)c2ccc3c4c(-c5ccc6c7ccccc7n(-c7ccccc7)c6c5)cc5c6c(cc(-c7ccc8c9ccccc9n(-c9ccccc9)c8c7)c(c7ccc(c2c37)C1=O)c64)C(=O)N(CCCCCCCC)C5=O
absorption maximum (in ClC(Cl)Cl): 567 nm

CCCCCC(=O)Oc1cc2[nH]c(cc2CCOC)c2nc(ccc3[nH]c(cc3CCOC)c3nc1C(CCOC)=C3)C(CCOC)=C2
absorption maximum (in Cc1ccccc1): 646 nm

CN(C)c1ccc2c3c(ccc2c1)C(=O)CCC3
absorption maximum (in C1CCCCC1): 347 nm
absorption maximum (in CC#N): 356 nm
absorption maximum (in CC(C)O): 368 nm
absorption maximum (in CCC(C)=O): 356 nm
absorption maximum (in CCO): 369 nm
absorption maximum (in CCOC(C)=O): 353 nm
absorption maximum (in CS(C)=O): 363 nm
absorption maximum (in Cc1ccccc1): 353 nm
absorption maximum (in ClCCl): 358 nm
absorption maximum (in Clc1ccccc1): 357 nm

COc1ccc(C2=C3C(/C=C/c4cc(OC)c(OC)c(OC)c4)=C(C=O)C(C)=[N+]3[B-](F)(F)n3c(/C=C/c4cc(OC)c(OC)c(OC)c4)c(C=O)c(C=Cc4cc(OC)c(OC)c(OC)c4)c32)cc1
absorption maximum (in ClCCl): 634 nm

CC1(C)CC(=O)c2ccccc2N1
absorption maximum (in CCO): 383 nm

CCOC(=O)/C=C/C1=C(c2ccc(C)cc2)C2=Nc3c(-c4ccc(C)cc4)cc(-c4ccc(C)cc4)n3[B-](F)(F)[N+]2=C1c1ccc(C)cc1
absorption maximum (in ClC(Cl)Cl): 663 nm

c1ccc(-c2nc(-c3c4ccccc4cc4ccccc34)n3ccccc23)cc1
absorption maximum (in C1CCCCC1): 375 nm
absorption maximum (in CC#N): 375 nm
absorption maximum (in CO): 366 nm
absorption maximum (in ClCCl): 382 nm
absorption maximum (in O): 375 nm
